26 compounds from US20260207602A1, “EGFR INHIBITORS” (Blueprint Medicines Corporation, priority 2022, published 2026) can be followed below.

In assay [1] the target is T1, EGFR L858R (Homo sapiens, UniProt P00533, L858R).
T1 construct: purchased SignalChem E10-122BG
The assay can be described thus: Biochemical EGFR inhibition assay (Caliper mobility shift), EGFR L858R. As to conditions: biochemical Caliper mobility shift assay, EGFR L858R enzyme; read-out: Enz EGFR L858R IC50. The essentials: (§1)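 Recombinant EGFR mutant phosphorylates 2.5 μM 5-FAM peptide at 1.0 mM ATP or ATP Km, in 100 mM HEPES pH 7.5, 10 mM MgCl2, 1 mM DTT, 1% DMSO, 25 °C to 10–20% conversion, EDTA stop. Caliper mobility shift separation; apparent IC50 from percent activity versus log concentration.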

For assay [2], the target named is T2, EGFR (d746-750) (Homo sapiens, UniProt P00533, DEL746-750).
T2 construct: purchased SignalChem E10-122JG
The assay can be described thus: Biochemical EGFR inhibition assay (Caliper mobility shift), EGFR (d746-750). The note with it: biochemical Caliper mobility shift assay, EGFR Exon 19-del enzyme; read-out: Enz EGFR Exon 19-del IC50. An outline of the steps: as §1

The target of assay [3] is intracellular phosphorylation of EGFR (Tyr1068) in PC-9 cells (Homo sapiens, UniProt P00533, DEL746-750). The experiment in a line: PC-9 pEGFR AlphaLISA assay. It is filed as cell-based. The note with it: 4 hours incubation, read-out: Phos EGFR PC9 IC50. The essentials: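 PC-9 cells (EGFR del746-750) in phenol-free DMEM/10% FBS, adhered overnight, then exposed to 10-point 4-fold compound dilutions for 4 h at 37 °C. Lysates assayed for pEGFR Tyr1068 by AlphaLISA SureFire Ultra; IC50 from percent pEGFR inhibition vs log concentration.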

Where only a bound is given, the exact number is not on record here.

T1 sequence (P00533 25-1210 L858R): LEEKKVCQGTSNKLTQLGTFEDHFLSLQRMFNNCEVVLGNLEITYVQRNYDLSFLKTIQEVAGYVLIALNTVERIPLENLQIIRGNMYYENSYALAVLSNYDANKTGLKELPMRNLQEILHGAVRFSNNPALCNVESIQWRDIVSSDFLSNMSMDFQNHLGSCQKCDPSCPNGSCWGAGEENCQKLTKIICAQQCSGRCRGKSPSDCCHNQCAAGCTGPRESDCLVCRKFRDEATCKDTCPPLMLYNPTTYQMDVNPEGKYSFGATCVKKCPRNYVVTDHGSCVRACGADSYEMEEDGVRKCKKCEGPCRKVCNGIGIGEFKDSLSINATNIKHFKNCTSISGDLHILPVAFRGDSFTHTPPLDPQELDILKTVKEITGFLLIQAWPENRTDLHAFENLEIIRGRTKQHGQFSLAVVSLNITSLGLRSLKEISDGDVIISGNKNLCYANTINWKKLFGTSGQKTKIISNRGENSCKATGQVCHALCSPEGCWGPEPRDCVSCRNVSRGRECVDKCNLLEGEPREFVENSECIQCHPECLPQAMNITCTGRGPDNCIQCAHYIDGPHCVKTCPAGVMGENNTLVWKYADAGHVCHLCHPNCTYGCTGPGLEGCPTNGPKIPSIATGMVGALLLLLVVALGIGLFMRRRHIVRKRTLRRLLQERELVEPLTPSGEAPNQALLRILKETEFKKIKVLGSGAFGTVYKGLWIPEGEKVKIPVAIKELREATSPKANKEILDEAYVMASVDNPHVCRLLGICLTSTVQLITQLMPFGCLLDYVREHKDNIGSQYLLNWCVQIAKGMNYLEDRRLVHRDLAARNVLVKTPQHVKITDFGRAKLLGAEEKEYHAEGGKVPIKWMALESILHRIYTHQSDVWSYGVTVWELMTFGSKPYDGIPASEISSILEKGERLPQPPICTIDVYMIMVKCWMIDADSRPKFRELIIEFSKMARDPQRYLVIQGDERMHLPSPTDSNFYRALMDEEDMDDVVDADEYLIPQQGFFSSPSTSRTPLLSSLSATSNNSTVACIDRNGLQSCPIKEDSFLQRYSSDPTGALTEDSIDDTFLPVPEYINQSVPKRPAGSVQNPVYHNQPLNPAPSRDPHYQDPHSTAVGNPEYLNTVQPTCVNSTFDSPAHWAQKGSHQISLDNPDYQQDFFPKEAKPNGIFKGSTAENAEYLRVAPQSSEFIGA
Chain of intracellular phosphorylation of EGFR (Tyr1068) in PC-9 cells (P00533 with tags, fused parts or gaps DEL746-750): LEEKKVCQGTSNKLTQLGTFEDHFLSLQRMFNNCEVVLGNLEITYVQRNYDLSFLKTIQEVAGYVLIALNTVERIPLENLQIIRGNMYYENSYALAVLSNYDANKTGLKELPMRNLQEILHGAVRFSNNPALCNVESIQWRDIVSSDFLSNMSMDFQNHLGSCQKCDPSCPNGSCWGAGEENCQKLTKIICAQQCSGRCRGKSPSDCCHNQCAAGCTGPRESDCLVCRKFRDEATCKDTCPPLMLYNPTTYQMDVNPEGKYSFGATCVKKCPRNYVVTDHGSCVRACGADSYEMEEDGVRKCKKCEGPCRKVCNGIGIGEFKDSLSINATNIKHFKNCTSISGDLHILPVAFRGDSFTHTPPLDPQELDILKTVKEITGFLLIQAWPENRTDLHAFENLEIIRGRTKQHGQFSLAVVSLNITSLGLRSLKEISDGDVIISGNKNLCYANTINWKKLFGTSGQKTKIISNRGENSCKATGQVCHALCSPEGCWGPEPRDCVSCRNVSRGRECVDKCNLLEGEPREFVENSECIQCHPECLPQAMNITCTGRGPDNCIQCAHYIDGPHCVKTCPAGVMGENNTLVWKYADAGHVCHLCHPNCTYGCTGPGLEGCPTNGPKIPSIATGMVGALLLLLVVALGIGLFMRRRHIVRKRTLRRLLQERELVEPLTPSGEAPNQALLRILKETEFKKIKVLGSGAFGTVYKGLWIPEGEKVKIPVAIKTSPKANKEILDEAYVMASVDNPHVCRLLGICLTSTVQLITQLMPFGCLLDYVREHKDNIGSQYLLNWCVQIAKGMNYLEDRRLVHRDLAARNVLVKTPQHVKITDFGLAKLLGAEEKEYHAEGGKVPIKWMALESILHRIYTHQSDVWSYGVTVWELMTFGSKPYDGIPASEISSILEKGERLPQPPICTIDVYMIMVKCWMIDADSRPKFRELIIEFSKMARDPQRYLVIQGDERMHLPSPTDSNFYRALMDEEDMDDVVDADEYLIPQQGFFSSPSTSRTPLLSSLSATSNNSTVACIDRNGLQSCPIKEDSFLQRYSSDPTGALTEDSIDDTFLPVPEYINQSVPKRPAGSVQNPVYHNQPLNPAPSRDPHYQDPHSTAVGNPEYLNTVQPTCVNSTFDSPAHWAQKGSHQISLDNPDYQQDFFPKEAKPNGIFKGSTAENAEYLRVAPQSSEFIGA
T2 sequence (P00533 with tags, fused parts or gaps DEL746-750 limits assumed): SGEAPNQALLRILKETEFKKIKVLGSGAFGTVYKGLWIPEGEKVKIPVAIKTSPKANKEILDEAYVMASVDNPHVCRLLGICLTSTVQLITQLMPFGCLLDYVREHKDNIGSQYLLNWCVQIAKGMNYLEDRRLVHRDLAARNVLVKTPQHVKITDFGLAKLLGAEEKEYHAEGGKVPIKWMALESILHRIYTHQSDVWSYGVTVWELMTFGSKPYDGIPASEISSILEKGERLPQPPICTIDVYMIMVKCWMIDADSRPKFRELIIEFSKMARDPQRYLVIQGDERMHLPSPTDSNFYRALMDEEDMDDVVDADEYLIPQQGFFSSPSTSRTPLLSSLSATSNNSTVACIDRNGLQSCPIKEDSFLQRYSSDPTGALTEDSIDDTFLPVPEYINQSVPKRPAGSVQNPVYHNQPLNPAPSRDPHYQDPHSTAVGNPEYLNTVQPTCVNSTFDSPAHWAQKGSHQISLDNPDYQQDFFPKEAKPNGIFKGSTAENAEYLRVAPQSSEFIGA

For `CN(C)[C@H]1CC[C@H]1Oc1cc(-c2cnn(C)c2)cc2ncnc(Nc3ccc4ncsc4c3)c12` (racemic) [Example A50, N-(5-((1R,2S)-2-(dimethylamino)cyclobutoxy)-7-(1-methyl-1H-pyrazol-4-yl)quinazolin-4-yl)benzo[d]thiazol-6-amine], the IC50 in assay [1], in assay [2] and in assay [3] was ≤ 10 nM each time.

With `COc1nn(C)cc1-c1cc(O[C@@H]2COC[C@H]2F)c2c(Nc3ccc4ncsc4c3)ncnc2c1` (racemic) [Example 8, trans-N-(5-((-4-fluorotetrahydrofuran-3-yl)oxy)-7-(3-methoxy-1-methyl-1H-pyrazol-4-yl)quinazolin-4-yl)benzo[d]thiazol-6-amine], the values for the 50% inhibitory concentration (IC50) in assay [1], in assay [2] and in assay [3] were 10.1 to 50 nM, ≤ 10 nM and 10.1 to 50 nM, respectively.

Turning to `CCN1CCN(C(=O)Nc2cc3c(Nc4ccc5ncsc5c4)ncnc3cc2-c2ccn(C)n2)[C@H](C)C1` [Example 397, (R)-N-(4-(benzo[d]thiazol-6-ylamino)-7-(1-methyl-1H-pyrazol-3-yl)quinazolin-6-yl)-4-ethyl-2-methylpiperazine-1-carboxamide], the IC50 in assay [1], in assay [2] and in assay [3] was ≤ 10 nM in each case.

Turning to `Cn1cc(-c2cc(O[C@H]3CCNC[C@@H]3F)c3c(Nc4ccc5ncsc5c4)ncnc3c2)c(OC(F)F)n1` (racemic) [Example 370, N-(7-(3-(difluoromethoxy)-1-methyl-1H-pyrazol-4-yl)-5-(((3S,4S)-3-fluoropiperidin-4-yl)oxy)quinazolin-4-yl)benzo[d]thiazol-6-amine], the IC50 in assay [1], in assay [2] and in assay [3] was ≤ 10 nM in each case.

As to `CO[C@@H]1CCN(C)C[C@H]1Oc1cc(-c2cnn(C)c2)cc2ncnc(Nc3ccc4ncsc4c3)c12` (single isomer, unassigned) [Example A40], the results for the IC50 in assay [1], in assay [2] and in assay [3] were ≤ 10 nM, ≤ 10 nM and 10.1 to 50 nM, respectively.

Regarding `COc1cc2ncnc(Nc3ccc4ncsc4c3)c2cc1-c1cnn(C2CCN(C)C[C@H]2F)c1` (single isomer, unassigned) [Example 166], the IC50 in assay [1], in assay [2] and in assay [3] was ≤ 10 nM each time.

Consider `COc1cc2ncnc(Nc3ccc4ncsc4c3)c2cc1-c1cnn(C)c1` [Example 132, N-(7-methoxy-6-(1-methyl-1H-pyrazol-4-yl)quinazolin-4-yl)benzo[d]thiazol-6-amine], for which the IC50 in assay [1], in assay [2] and in assay [3] was ≤ 10 nM throughout.

Regarding `CC(Oc1cc(-c2cn(C)nc2OC(F)F)cc2ncnc(Nc3ccc4ncsc4c3)c12)C1COC1` (single isomer, unassigned) [Example 173], the IC50 in assay [1], in assay [2] and in assay [3] was ≤ 10 nM in each case.

As for `C[C@H](Oc1cc(N2CCN(C)C2=O)cc2ncnc(Nc3ccc4ncsc4c3)c12)C1COC1` (single isomer, unassigned) [Example 158], the IC50 in assay [1] is ≤ 10 nM; in assay [2] it was ≤ 10 nM; in assay [3] it was 10.1 to 50 nM.

For the compound `Cn1cc(-c2cc(O[C@H]3COC[C@@H]3O)c3c(Nc4ccc5ncsc5c4)ncnc3c2)cn1` (single isomer, unassigned) [Example A29], the IC50 in assay [1] was ≤ 10 nM; in assay [2], ≤ 10 nM; in assay [3], 10.1 to 50 nM.

For the compound `Cn1cc(-c2cc(OCC3COC3)c3c(Nc4ccc5ncsc5c4)ncnc3c2)cn1` [Example 28, N-(7-(1-methyl-1H-pyrazol-4-yl)-5-(oxetan-3-ylmethoxy)quinazolin-4-yl)benzo[d]thiazol-6-amine], the IC50 in assay [1] was ≤ 10 nM; in assay [2], ≤ 10 nM; in assay [3] it was 10.1 to 50 nM.

With `CN1CC[C@H](Oc2cc(-c3cnn(C)c3)cc3ncnc(Nc4ccc5ncsc5c4)c23)C1` [Example 34, (S)-N-(7-(1-methyl-1H-pyrazol-4-yl)-5-((1-methylpyrrolidin-3-yl)oxy)quinazolin-4-yl)benzo[d]thiazol-6-amine], the IC50 is 10.1 to 50 nM in assay [1], ≤ 10 nM in assay [2] and 10.1 to 50 nM in assay [3].

Turning to `C[C@@H](Oc1cc(N2CCN(C)CC2)cc2ncnc(Nc3ccc4ncsc4c3)c12)C1COC1` (single isomer, unassigned) [Example 97], the IC50 was 10.1 to 50 nM in assay [1], ≤ 10 nM in assay [2] and 10.1 to 50 nM in assay [3].

Regarding `CN1CCC(Oc2cc(-c3cnn(C)c3)cc3ncnc(Nc4ccc5ncsc5c4)c23)C(F)(F)C1` (stereo not drawn) [Example 2, N-(5-((3,3-difluoro-1-methylpiperidin-4-yl)oxy)-7-(1-methyl-1H-pyrazol-4-yl)quinazolin-4-yl)benzo[d]thiazol-6-amine], the IC50 in assay [1], in assay [2] and in assay [3] was ≤ 10 nM each time.

As for `Cn1cc(-c2cc(O[C@H]3CCCN(C4COC4)C3)c3c(Nc4ccc5ncsc5c4)ncnc3c2)cn1` [Example 317, (S)-N-(7-(1-methyl-1H-pyrazol-4-yl)-5-((1-(oxetan-3-yl)piperidin-3-yl)oxy)quinazolin-4-yl)benzo[d]thiazol-6-amine], the IC50 in assay [1], in assay [2] and in assay [3] was ≤ 10 nM throughout.

Take `CCN1CCC(Oc2cc(-c3cnn(C)c3)cc3ncnc(Nc4ccc5ncsc5c4)c23)CC1` [Example 309, N-(5-((1-ethylpiperidin-4-yl)oxy)-7-(1-methyl-1H-pyrazol-4-yl)quinazolin-4-yl)benzo[d]thiazol-6-amine]: the IC50 in assay [1], in assay [2] and in assay [3] was ≤ 10 nM throughout.

`CN1CCC(n2cc(-c3cc(F)c4c(Nc5ccc6ncsc6c5F)ncnc4c3)cn2)CC1` [Example 227, 7-fluoro-N-(5-fluoro-7-(1-(1-methylpiperidin-4-yl)-1H-pyrazol-4-yl)quinazolin-4-yl)benzo[d]thiazol-6-amine]: the IC50 was ≤ 10 nM in assay [1], ≤ 10 nM in assay [2] and 10.1 to 50 nM in assay [3].

As to `CN1CC[C@@H](Oc2cc(-c3cnn(C)c3)cc3ncnc(Nc4ccc5ncsc5c4)c23)[C@@H](F)C1` (single isomer, unassigned) [Example 340], the concentration for half-maximal inhibition (IC50) in assay [1], in assay [2] and in assay [3] was ≤ 10 nM each time.

For `C[C@H](Oc1cc(-c2cnn(C)c2)cc2ncnc(Nc3ccc4ncsc4c3)c12)C(=O)N1CCOCC1` [Example 284, (S)-2-((4-(benzo[d]thiazol-6-ylamino)-7-(1-methyl-1H-pyrazol-4-yl)quinazolin-5-yl)oxy)-1-morpholinopropan-1-one], the IC50 in assay [1], in assay [2] and in assay [3] was ≤ 10 nM each time.

Consider `COc1nn(C)cc1-c1cc(O[C@H]2CNC[C@H]2F)c2c(Nc3ccc4ncsc4c3)ncnc2c1` (racemic) [Example 371, N-(5-(((3S,4R)-4-fluoropyrrolidin-3-yl)oxy)-7-(3-methoxy-1-methyl-1H-pyrazol-4-yl)quinazolin-4-yl)benzo[d]thiazol-6-amine and N-(5-(((3R,4S)-4-fluoropyrrolidin-3-yl)oxy)-7-(3-methoxy-1-methyl-1H-pyrazol-4-yl)quinazolin-4-yl)benzo[d]thiazol-6-amine], for which the IC50 is 10.1 to 50 nM in assay [1], ≤ 10 nM in assay [2] and 10.1 to 50 nM in assay [3].

With `COC[C@H](CN(C)C)Oc1cc(-c2cnn(C)c2)cc2ncnc(Nc3ccc4ncsc4c3)c12` [Example 141, (S)-N-(5-((1-(dimethylamino)-3-methoxypropan-2-yl)oxy)-7-(1-methyl-1H-pyrazol-4-yl)quinazolin-4-yl)benzo[d]thiazol-6-amine], the IC50 in assay [1] is 10.1 to 50 nM; in assay [2], ≤ 10 nM; in assay [3] it was 10.1 to 50 nM.

Turning to `C[C@@H](Oc1cc(-c2cnn(C)c2)cc2ncnc(Nc3ccc4ncsc4c3)c12)C1CN(C)C1` (single isomer, unassigned) [Example 385], the IC50 in assay [1], in assay [2] and in assay [3] was ≤ 10 nM in each case.

On to `CN(C)C[C@H](Oc1cc(-c2cnn(C)c2)cc2ncnc(Nc3ccc4ncsc4c3)c12)C(F)(F)F` (single isomer, unassigned) [Example 178], for which the 50% inhibitory concentration (IC50) in assay [1], in assay [2] and in assay [3] was ≤ 10 nM throughout.

For `COc1nn(C)cc1-c1cc(O[C@H]2CCNC[C@@H]2F)c2c(Nc3ccc4ncsc4c3)ncnc2c1` (single isomer, unassigned) [Example 360], the IC50 in assay [1], in assay [2] and in assay [3] was ≤ 10 nM each time.

In the case of `Cn1cc(-c2cc(O[C@@H]3CC[C@H]3O)c3c(Nc4ccc5ncsc5c4)ncnc3c2)cn1` [Example 186, (1R,2R)-2-((4-(benzo[d]thiazol-6-ylamino)-7-(1-methyl-1H-pyrazol-4-yl)quinazolin-5-yl)oxy)cyclobutan-1-ol], the IC50 in assay [1], in assay [2] and in assay [3] was ≤ 10 nM throughout.

On to `Cn1cc(-c2cc(OC[C@H]3CCCO3)c3c(Nc4ccc5ncsc5c4)ncnc3c2)cn1` [Example 31, (R)-N-(7-(1-methyl-1H-pyrazol-4-yl)-5-((tetrahydrofuran-2-yl)methoxy)quinazolin-4-yl)benzo[d]thiazol-6-amine], for which the IC50 is ≤ 10 nM in assay [1], ≤ 10 nM in assay [2] and 10.1 to 50 nM in assay [3].

By IC50 is commonly meant the midpoint of a concentration-inhibition curve.
